In patent US8895611B1, “Cytotoxic compounds for treating cancer” (King Fahd University of Petroleum and Minerals, priority 2013, dated 2014):

Columns and labels:
[1] = tested on: prostate cancer cells (PC-3); assay: MTT cell proliferation / cytotoxicity assay with trypan blue dye exclusion, PC-3 cells; format: cell-based, human; settings: for activity / inhibition against human prostate cancer cells (PC-3): after 24 and 72 hours of treatment, FIGS. 1A-3B
Method: (§1) In FIGS. 1A-3B, the cells were treated with a concentration of 10 μM of each compound.
(§2) The anti-proliferative effect was measured by MTT assay.
(§3) Six duplicate wells were set up for each sample, and cells untreated with a compound served as a control. Treatment was conducted at 24 and 72 hours, respectively. After incubation, 10 μL MTT (6 g/L, Sigma) was added to each well and the incubation was continued for 4 hours at 37° C. After removal of the medium, MTT stabilization solution (dimethylsulphoxide: ethanol=1:1) was added to each well, and shaken for ten minutes until all crystals were dissolved. Then, optical density was detected in a micro plate reader at 550 nm wavelength using an enzyme-linked immunosorbent assay (ELISA) reader. Each assay was performed in triplicate. Cell number and viability were determined by trypan blue dye exclusion analysis.
(§4) The cytotoxicity assay was performed with various concentrations of the synthesized gold (III) complexes on PC-3 and SGC-7901 cells.

[2] = tested on: human gastric cancer cells (SGC-7901); assay: MTT cell proliferation / cytotoxicity assay with trypan blue dye exclusion, SGC-7901 cells; format: cell-based; settings: for activity / inhibition against gastric cancer cells SGC-7901: after 24 and 72 hours of treatment, FIGS. 1A-3B
Method: as §1, §2, §3, §4

Compound | activity / inhibition against human prostate cancer cells (PC-3) ([1]; 10 μM) | activity / inhibition against gastric cancer cells SGC-7901 ([2]; 10 μM) | bioactivity on PC-3 cells, trans-(1R,2R) compared with trans-(1S,2S) isomer ([1]; conclusion from FIGS. 1A-6B) | bioactivity on SGC-7901 cells, trans-(1R,2R) compared with trans-(1S,2S) isomer ([2]; conclusion from FIGS. 1A-6B) | cytotoxic effect on PC-3 cells, compound 1 compared with compound 2 ([1]; 10 μM, one, two and three days, FIG. 7A) | cell proliferation of PC-3 cells compared with SGC-7901 cells ([1]; fixed 10 μM, after 72 hours, FIGS. 1A and 1B) | cytotoxic effect on SGC-7901 cells, compound 1 compared with compound 2 ([2]; 10 μM, one, two and three days, FIG. 7B)
trans-(±)-1,2-(DACH)AuCl3 [compound 2] | moderate inhibition | moderate inhibition | – | – | – | – | –
N[C@H]1CCCC[C@@H]1N.[Cl][Au]([Cl])[Cl] [compound 3, (S,S)-(+)-1,2-(DACH)AuCl3] | moderate inhibition | moderate inhibition | no significant difference in the bioactivity | no significant difference in the bioactivity | – | – | –
cis-(±)-1,2-(DACH)AuCl3 [compound 1] | potentially high activity | potentially high activity | – | – | higher cytotoxic effect in comparison with the same concentration of compound 2 | bit higher than that of the SGC-7901 cells | higher cytotoxic effect in comparison with the same concentration of compound 2
